Laboratory results published in PubChem BioAssay (NCI).
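How tested: cells in 96-well plates exposed to compound for 48 hours at five concentrations. Abbreviation: GI50, concentration required for 50% inhibition of growth. TGI denotes the concentration required for complete inhibition of growth.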

How the values were obtained:
Assay in all cases: DTP human tumour cell line panel, 48 h
HCC-2998 colon = system: HCC-2998 colon
HCT-116 colon = system: HCT-116 colon
HCT-15 colon = system: HCT-15 colon
HS 578T breast = system: HS 578T breast
M14 melanoma = system: M14 melanoma
MALME-3M melanoma = system: MALME-3M melanoma
NCI-H226 lung = system: NCI-H226 lung
RXF 393 renal = system: RXF 393 renal
SK-MEL-28 melanoma = system: SK-MEL-28 melanoma
UACC-257 melanoma = system: UACC-257 melanoma

Row | Compound | TGI (HCC-2998 colon) [µM] | TGI (HCT-116 colon) [µM] | TGI (HCT-15 colon) [µM] | TGI (HS 578T breast) [µM] | TGI (M14 melanoma) [µM] | TGI (MALME-3M melanoma) [µM] | TGI (NCI-H226 lung) [µM] | TGI (RXF 393 renal) [µM] | TGI (SK-MEL-28 melanoma) [µM] | TGI (UACC-257 melanoma) [µM] | GI50 (HCC-2998 colon) [µM] | GI50 (HCT-116 colon) [µM] | GI50 (HCT-15 colon) [µM] | GI50 (HS 578T breast) [µM] | GI50 (M14 melanoma) [µM] | GI50 (MALME-3M melanoma) [µM] | GI50 (NCI-H226 lung) [µM] | GI50 (RXF 393 renal) [µM] | GI50 (UACC-257 melanoma) [µM] | GI50 (SK-MEL-28 melanoma) [µM]
1 | COc1cccc2nc3ccccc3nc12 | > 100 | > 100 | > 100 | > 100 | > 100 | > 100 | > 100 | > 100 | > 100 | > 100 |  |  |  |  |  |  |  |  |  | 
2 | O=C1C=CC(=Nc2cccc3c(N=C4C=CC(=O)O4)cccc23)O1 | > 100 | 53.1 | > 100 | > 100 | 87.8 | 42.8 | > 100 | 50 | > 100 | 55.6 |  |  |  |  |  |  |  |  |  | 
3 | Nc1nnnc2nc[nH]c12 | > 34.7 | > 100 | > 100 | > 65.5 | 4.02 | 7.06 | 4.86 | > 100 | > 45.8 | 14 | 1.26 | 0.639 | 2.64 | 3.51 | 0.568 | 0.759 | 1.05 | 1.35 | 0.729 | 
4 | C/C(=N/O)c1ccc2c(c1)/C(=N/O)c1ccccc1-2 | 35.9 | 38.5 | 33.7 | 99.2 | 40.6 | 46 | 49.7 | 44.8 | 39.9 | 65.5 | 20.3 | 20.7 | 17.1 | 29.4 | 21.9 | 21.9 | 22.2 | 21.3 | 29.4 | 17.9
5 | Cc1ccc(NC(=O)Nc2c(Cl)cccc2Cl)cn1 | > 100 | > 100 | > 100 | 6.89 | > 100 | > 100 | > 100 | 30.9 | > 100 | > 100 | 28 | 11.1 | 5.61 | 1.94 | 12 | 8.57 | > 100 | 5.85 | 71.4 | 58.2
6 | NC1=NC(=O)/C(=C/c2ccc3ncccc3c2)S1 | > 25 | > 25 | > 25 | > 25 | > 25 | > 25 | > 25 | > 25 | > 25 | > 25 | > 25 | > 13.8 | > 25 | > 25 | > 25 | > 25 | > 25 | > 25 | > 25 | > 25
7 | COC1=C(OC)C(=O)C(Sc2ccc3ccccc3c2)=CC1=O | 26.1 | 25.9 | 44.7 | 53.4 | 21.8 | 28.4 | 27.2 | 22.1 | 41.5 | 22.2 |  |  |  |  |  |  |  |  |  | 
